Legend:
NS5B 5a isolate 4 = NS5B 5a isolate 4 (Hepatitis C virus genotype 5a, UniProt O39928); test: Enzyme binding affinity, SPR (Biacore); parameters: species or system HCV
NS5B 4a isolate 3 [1] = target: T1, NS5B 4a isolate 3 (Hepatitis C virus genotype 4a, UniProt O39929)
NS5B 1b isolate 3 = NS5B 1b isolate 3 (Hepatitis C virus genotype 1b, UniProt Q9WMX2)
NS5B 1a isolate 3 = NS5B 1a isolate 3 (Hepatitis C virus genotype 1a, UniProt P27958)
NS5B 1a isolate 1 = NS5B 1a isolate 1 (Hepatitis C virus genotype 1a, UniProt P27958)
NS5B 1b isolate 2 = NS5B 1b isolate 2 (Hepatitis C virus genotype 1b, UniProt Q9WMX2)
NS5B 1a isolate 2 = NS5B 1a isolate 2 (Hepatitis C virus genotype 1a, UniProt P27958)
NS5B 6a isolate 5 [2] = target: T2, NS5B 6a isolate 5 (Hepatitis C virus genotype 6a, UniProt O39927); test: biochemical
NS5B 4a isolate 1 [3] = target: T3, NS5B 4a isolate 1 (Hepatitis C virus genotype 4a, UniProt O39929); test: biochemical
NS5B 2b isolate 2 = NS5B 2b isolate 2 (Hepatitis C virus genotype 2b, UniProt P26661)
NS5B 6a isolate 5 [4] = target: T2, NS5B 6a isolate 5
NS5B 4a isolate 1 [5] = target: T3, NS5B 4a isolate 1
NS5B 4a isolate 2 [6] = target: T4, NS5B 4a isolate 2 (Hepatitis C virus genotype 4a, UniProt O39929); test: biochemical
NS5B 1a isolate 4 = NS5B 1a isolate 4 (Hepatitis C virus genotype 1a, UniProt P27958)
NS5B 4a isolate 2 [7] = target: T4, NS5B 4a isolate 2
NS5B 4a isolate 3 [8] = target: T1, NS5B 4a isolate 3; test: biochemical
[9] = system: HCV type 1b replicon in Huh-7 luc/neo (Huh-Luc) cells; test: HCV replicon assay (Huh-Luc, luciferase); details: Hepatitis C virus, Huh-7, 72 h
HCV NS5B 1bJ4 = HCV NS5B 1bJ4 (Hepatitis C virus genotype 1b (strain HC-J4) (HCV), UniProt O92972); test: Inhibition assay with NS5b 1bJ4 (RdRp, SPA); assay type: biochemical; details: 50 nM NS5B 1bJ4 enzyme, radiolabeled GTP incorporation
HCV NS5B con1b = HCV NS5B con1b (Hepatitis C virus genotype 1b (isolate Con1) (HCV), UniProt Q9WMX2); test: RNA-dependent RNA polymerase assay NS5B con1b; details: read-out: IC50 Con1b; 20 nM Con1b NS5B enzyme, primer-dependent transcription assay
Description: Fifty-percent inhibitory concentrations (Table 1: IC50 con1b) were determined according to the method as described previously (Pauwels et al, 2007, J Virol 81:6909-19) using a primer-dependent transcription assay. […] 600 nM GTP and 0.13 μCi of [^3H]GTP was then added to initiate the 40-μl reaction mixture, which was then incubated at room temperature for 2 h before the reaction was stopped by addition of 40-μl streptavidin-coated SPA beads.

Sequence of HCV NS5B 1bJ4 (O92972 whole entry, looked up): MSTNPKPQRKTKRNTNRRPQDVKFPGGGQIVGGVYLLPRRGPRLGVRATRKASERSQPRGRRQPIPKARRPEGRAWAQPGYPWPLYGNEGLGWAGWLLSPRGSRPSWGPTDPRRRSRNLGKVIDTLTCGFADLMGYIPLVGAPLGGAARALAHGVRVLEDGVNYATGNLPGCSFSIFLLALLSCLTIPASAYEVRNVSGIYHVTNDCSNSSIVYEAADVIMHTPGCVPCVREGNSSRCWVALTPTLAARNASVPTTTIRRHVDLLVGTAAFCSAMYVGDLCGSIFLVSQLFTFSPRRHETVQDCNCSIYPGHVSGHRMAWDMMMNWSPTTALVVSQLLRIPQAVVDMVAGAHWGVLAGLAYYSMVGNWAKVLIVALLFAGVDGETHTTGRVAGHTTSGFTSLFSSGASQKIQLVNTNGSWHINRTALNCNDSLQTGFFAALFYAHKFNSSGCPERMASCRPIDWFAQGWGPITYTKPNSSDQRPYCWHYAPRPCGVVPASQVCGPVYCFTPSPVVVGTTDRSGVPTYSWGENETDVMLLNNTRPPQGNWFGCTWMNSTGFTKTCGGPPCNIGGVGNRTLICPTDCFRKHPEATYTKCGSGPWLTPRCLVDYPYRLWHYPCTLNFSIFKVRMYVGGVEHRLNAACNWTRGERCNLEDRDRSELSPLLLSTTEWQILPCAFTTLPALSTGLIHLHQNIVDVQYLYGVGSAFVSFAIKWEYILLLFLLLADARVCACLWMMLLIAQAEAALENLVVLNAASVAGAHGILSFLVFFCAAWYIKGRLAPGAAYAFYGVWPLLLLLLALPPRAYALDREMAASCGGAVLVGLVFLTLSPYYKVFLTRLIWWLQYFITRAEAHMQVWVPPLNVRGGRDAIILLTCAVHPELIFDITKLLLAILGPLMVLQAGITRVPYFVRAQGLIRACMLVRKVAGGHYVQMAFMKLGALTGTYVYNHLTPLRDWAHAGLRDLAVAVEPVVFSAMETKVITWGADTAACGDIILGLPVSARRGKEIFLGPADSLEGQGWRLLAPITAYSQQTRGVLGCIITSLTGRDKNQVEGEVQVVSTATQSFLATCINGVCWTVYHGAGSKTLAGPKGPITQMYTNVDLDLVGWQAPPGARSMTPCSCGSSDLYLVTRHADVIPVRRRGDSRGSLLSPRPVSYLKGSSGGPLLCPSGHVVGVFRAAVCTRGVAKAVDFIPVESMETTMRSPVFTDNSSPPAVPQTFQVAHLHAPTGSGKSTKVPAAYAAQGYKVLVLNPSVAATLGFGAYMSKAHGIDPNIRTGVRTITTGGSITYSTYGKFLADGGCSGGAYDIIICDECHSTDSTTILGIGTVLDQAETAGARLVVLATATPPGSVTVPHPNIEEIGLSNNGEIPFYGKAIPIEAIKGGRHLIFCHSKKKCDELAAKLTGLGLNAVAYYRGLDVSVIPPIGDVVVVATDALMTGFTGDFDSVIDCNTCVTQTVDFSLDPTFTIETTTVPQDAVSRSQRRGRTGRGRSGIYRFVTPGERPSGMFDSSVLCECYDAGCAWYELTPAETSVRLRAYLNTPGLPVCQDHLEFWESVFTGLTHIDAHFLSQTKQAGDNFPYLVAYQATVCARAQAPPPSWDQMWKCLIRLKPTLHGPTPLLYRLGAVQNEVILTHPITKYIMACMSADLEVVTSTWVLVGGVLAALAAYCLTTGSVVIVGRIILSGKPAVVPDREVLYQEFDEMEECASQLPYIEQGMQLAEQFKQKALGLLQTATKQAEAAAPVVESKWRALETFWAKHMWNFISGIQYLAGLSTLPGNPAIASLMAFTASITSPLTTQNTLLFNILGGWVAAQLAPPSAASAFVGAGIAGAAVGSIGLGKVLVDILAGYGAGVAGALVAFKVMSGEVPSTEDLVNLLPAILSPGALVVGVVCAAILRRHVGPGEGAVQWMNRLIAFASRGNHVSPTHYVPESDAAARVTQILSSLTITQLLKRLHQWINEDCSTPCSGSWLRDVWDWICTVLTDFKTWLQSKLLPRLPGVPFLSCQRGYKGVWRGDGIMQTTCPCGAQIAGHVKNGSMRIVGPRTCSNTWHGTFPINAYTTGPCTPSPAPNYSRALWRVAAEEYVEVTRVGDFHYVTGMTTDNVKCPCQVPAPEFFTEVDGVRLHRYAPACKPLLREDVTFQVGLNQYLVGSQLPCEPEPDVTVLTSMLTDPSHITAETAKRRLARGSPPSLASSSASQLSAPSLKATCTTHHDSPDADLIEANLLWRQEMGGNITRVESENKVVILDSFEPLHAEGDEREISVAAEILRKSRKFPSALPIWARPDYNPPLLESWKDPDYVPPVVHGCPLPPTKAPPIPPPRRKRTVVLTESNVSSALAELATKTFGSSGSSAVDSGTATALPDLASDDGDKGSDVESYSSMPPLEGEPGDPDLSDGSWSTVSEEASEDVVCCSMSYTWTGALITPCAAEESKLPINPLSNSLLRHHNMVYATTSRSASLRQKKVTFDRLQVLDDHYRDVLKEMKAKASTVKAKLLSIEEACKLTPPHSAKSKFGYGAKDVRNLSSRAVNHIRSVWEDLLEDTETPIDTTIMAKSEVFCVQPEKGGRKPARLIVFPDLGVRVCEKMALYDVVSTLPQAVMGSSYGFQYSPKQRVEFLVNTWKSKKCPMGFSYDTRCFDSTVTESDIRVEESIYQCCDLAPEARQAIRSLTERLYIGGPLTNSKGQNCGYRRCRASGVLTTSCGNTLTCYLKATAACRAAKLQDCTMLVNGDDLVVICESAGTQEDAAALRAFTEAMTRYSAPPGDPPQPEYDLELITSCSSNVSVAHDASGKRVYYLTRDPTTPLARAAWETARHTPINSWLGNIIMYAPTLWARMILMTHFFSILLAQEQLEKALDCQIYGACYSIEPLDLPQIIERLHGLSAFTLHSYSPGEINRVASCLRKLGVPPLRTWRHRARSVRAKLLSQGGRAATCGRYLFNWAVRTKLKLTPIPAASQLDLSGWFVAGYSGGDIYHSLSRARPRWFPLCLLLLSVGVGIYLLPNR

SMILES	EC50 [9] [nM]	other results
COc1ccc2c(c1)C=C1Cn3c-2c(C2CCCCC2)c2ccc(cc23)C(=O)NS(=O)(=O)N(C)CCOCCN(C)C1=O [Compound 1]		Kd (NS5B 5a isolate 4): 22 nM; t1/2 (NS5B 4a isolate 3 [1]): 19.1 min; t1/2 (NS5B 1b isolate 3): 96.4 min; t1/2 (NS5B 1a isolate 3): 19.2 min; t1/2 (NS5B 1a isolate 1): 24.2 min; t1/2 (NS5B 1b isolate 2): 172.1 min; t1/2 (NS5B 1a isolate 2): 31.3 min; Kd (NS5B 6a isolate 5 [2]): 32 nM; Kd (NS5B 4a isolate 1 [3]): 2.1 nM; t1/2 (NS5B 2b isolate 2): 1.0 min; t1/2 (NS5B 6a isolate 5 [4]): 7.3 min; t1/2 (NS5B 4a isolate 1 [5]): 26.7 min; Kd (NS5B 4a isolate 2 [6]): 1.4 nM; t1/2 (NS5B 1a isolate 4): 14.9 min; t1/2 (NS5B 4a isolate 2 [7]): 30.1 min; Kd (NS5B 4a isolate 3 [8]): 3.4 nM
COc1ccc2c(c1)C=C1Cn3c-2c(C2CCCCC2)c2ccc(cc23)C(=O)NS(=O)(=O)N2CCN(CCNC1=O)CC2 [Compound 5]	920	IC50 (HCV NS5B 1bJ4): 290 nM
COc1ccc2c(c1)C=C1Cn3c-2c(C2CCCCC2)c2ccc(cc23)C(=O)NS(=O)(=O)N(C)CCN(C)CCNC1=O [Compound 6]	550	
COc1ccc2c(c1)[C@@H]1C[C@]13Cn1c-2c(C2CCCCC2)c2ccc(cc21)C(=O)NS(=O)(=O)N(C)CCOCCN(C)C3=O [Compound 8, (1aR,12bS)-8-cyclohexyl-11-methoxy-16,22-dimethyl-1,12b-dihydro-5,1a-(methanoiminothioiminoethanooxyethanoiminomethano)cyclopropa[d]-indolo[2,1-a][2]benzazepine-13,23(2H)-dione 15,15-dioxide]	40	
COc1ccc2c(c1)[C@H]1C[C@@]13Cn1c-2c(C2CCCCC2)c2ccc(cc21)C(=O)NS(=O)(=O)N(C)CCOCCN(C)C3=O [Compound 9, (1 aS,12bR)-8-cyclohexyl-11-methoxy-16,22-dimethyl-1,12b-dihydro-5,1a-(methanoiminothioiminoethanooxyethanoiminomethano)cyclopropa[d]indolo-[2,1-a][2]benzazepine-13,23(2H)-dione 15,15-dioxide]	800	
COc1ccc2c(c1)C1CC13Cn1c-2c(C2CCCCC2)c2ccc(cc21)C(=O)NS(=O)(=O)N(C)CCCCNC3=O (stereo not shown) [Compound 10, 8-cyclohexyl-11-methoxy-16-methyl-1,12b-dihydro-5,1a-(methanoiminothioiminobutanoimino)cyclopropa[d]indolo[2,1-a][2]benzazepine-13,22(2H)-dione 15,15-dioxide]	60	IC50 (HCV NS5B 1bJ4): 280 nM
COc1ccc2c(c1)C1CC13Cn1c-2c(C2CCCCC2)c2ccc(cc21)C(=O)NS(=O)(=O)N(C)CCN1CCN(CC1)C3=O (stereo not shown) [Compound 11, 31-cyclohexyl-8-methoxy-22-methyl-21-thia-1,13,20,22,25-pentaazaheptacyclo-[23.2.2.1^3,13.1^12,15.1^14,18.0^3,5.0^6,11]dotriaconta-6,8,10,12(31),14(30),15,17-heptaene-2,19-dione 21,21-dioxide]	55	IC50 (HCV NS5B 1bJ4): 220 nM
COc1ccc2c(c1)C1CC13Cn1c-2c(C2CCCCC2)c2ccc(cc21)C(=O)NS(=O)(=O)N(C)C/C=C/CCNC3=O (stereo not shown) [Compound 12, 8-cyclohexyl-11-methoxy-16-methyl-1,12b-dihydro-5,1a-(methaniminothio-iminopent[2]enoiminomethano)cyclopropa[d]indolo[2,1-a][2]benzazepine-13,23(2H)-dione 15,15-dioxide]	290	IC50 (HCV NS5B 1bJ4): 930 nM
COc1ccc2c(c1)C=C1Cn3c-2c(C2CCCCC2)c2ccc(cc23)C(=O)NS(=O)(=O)N(C)CC=CCNC1=O [Compound 13]	390	IC50 (HCV NS5B 1bJ4): 190 nM
COc1ccc2c(c1)C=C1Cn3c-2c(C2CCCCC2)c2ccc(cc23)C(=O)NS(=O)(=O)N(C)CCN2CCN(CC2)C1=O [Compound 15]	180	
COc1ccc2c(c1)C(C)=C1Cn3c-2c(C2CCCCC2)c2ccc(cc23)C(=O)NS(=O)(=O)N(C)CCOCCN(C)C1=O [Compound 16]	78	
COc1ccc2c(c1)C(C)=C1Cn3c-2c(C2CCCCC2)c2ccc(cc23)C(=O)NS(=O)(=O)N(C)CCCCN(C)C1=O [Compound 17]	170	
COc1ccc2c(c1)C=C1Cn3c-2c(C2CCCCC2)c2ccc(cc23)C(=O)NS(=O)(=O)N(C)CCCCN(C)C1=O [Compound 18]	79	
CN1CCOCCN(C)S(=O)(=O)NC(=O)c2ccc3c(C4CCCCC4)c4n(c3c2)CC(=Cc2cc(F)ccc2-4)C1=O [Compound 19]	72	IC50 (HCV NS5B con1b): 31 nM
CC1=C2Cn3c(c(C4CCCCC4)c4ccc(cc43)C(=O)NS(=O)(=O)N(C)CCOCCN(C)C2=O)-c2ccc(F)cc21 [Compound 20]	81	IC50 (HCV NS5B con1b): 38 nM
CN1CCOCCN(C)S(=O)(=O)NC(=O)c2ccc3c(C4CCCCC4)c4n(c3c2)CC(=Cc2cc(Cl)ccc2-4)C1=O [Compound 21]	280	
COc1ccc2c(c1)C=C1Cn3c-2c(C2CCCCC2)c2ccc(cc23)C(=O)NS(=O)(=O)N(C)CCCCCCN(C)C1=O [Compound 22]	160	
COc1ccc2c(c1)C=C1Cn3c-2c(C2CCCCC2)c2ccc(cc23)C(=O)NS(=O)(=O)NCCN(C)CCNC1=O [Compound 23]	470	
CN1CCCCN(C)S(=O)(=O)NC(=O)c2ccc3c(C4CCCCC4)c4n(c3c2)CC(=Cc2ccc(Cl)cc2-4)C1=O [Compound 24]	14500	
COc1ccc2c(c1)C=C1Cn3c-2c(C2CCCCC2)c2ccc(cc23)C(=O)NS(=O)(=O)NCCCCN(C)C1=O [Compound 25]	550	
COc1ccc2c(c1)C=C1Cn3c-2c(C2CCCCC2)c2ccc(cc23)C(=O)NS(=O)(=O)N(C)CCCCCNC1=O [Compound 26]	130	
CN1CCCCCNC(=O)C2=Cc3ccc(Cl)cc3-c3c(C4CCCCC4)c4ccc(cc4n3C2)C(=O)NS1(=O)=O [Compound 27]	10200	
COc1ccc2c(c1)C=C1Cn3c-2c(C2CCCCC2)c2ccc(cc23)C(=O)NS(=O)(=O)N(C(C)C)CCCCN(C)C1=O [Compound 28]	330	
COc1ccc2c(c1)C=C1Cn3c-2c(C2CCCCC2)c2ccc(cc23)C(=O)NS(=O)(=O)N(C)CCCCNC1=O [Compound 38]	912	
